According to US12171229B2, “Heteroaryl-triazole and heteroaryl-tetrazole compounds as pesticides” (BAYER AKTIENGESELLSCHAFT, priority 2018, dated 2024):

Experiments:
Assay type in all cases: in vivo
Spodoptera frugiperda = Spodoptera frugiperda spray test; conditions: 168 h, after 7 days, larvae on maize leaf sections
Description: Spodoptera frugiperda—Spray Test
(§1) To produce a suitable preparation of active compound, 1 part by weight of active compound is mixed with the stated amount of solvents and is diluted with water, containing an emulsifier concentration of 1000 ppm, to the desired concentration. Further test concentrations are prepared by dilution with emulsifier containing water.
Maize (Zea mays) leaf sections are sprayed with a preparation of the active ingredient of the desired concentration. Once dry, the leaf sections are infested with fall armyworm larvae (Spodoptera frugiperda).
After 7 days mortality in % is determined. 100% means all caterpillars have been killed and 0% means none of the caterpillars have been killed.

Myzus persicae [1] = assay: Myzus persicae oral test; conditions: 120 h, 4 ppm, after 5 days
Description: Solvent: 100 parts by weight acetone
To produce a suitable preparation of active compound, 1 part by weight of active compound is mixed with the stated amount of solvent, and the concentrate is diluted with water to the desired concentration.
50 μl compound solution is filled in microtiter plates and 150 μl IPL41 insect medium (33%+15% sugar) is added to obtain a total volume of 200 μl per well. Afterwards the plates are sealed with parafilm through which a mixed population of the green peach aphid (Myzus persicae) can suck on the compound preparation.
(§2) After 5 days mortality in % is determined. 100% means all aphids have been killed and 0% means none of the aphids have been killed.

Boophilus microplus = Boophilus microplus injection test; conditions: Rhipicephalus microplus, 168 h; 20 μg/animal injected into the abdomen; adult engorged female ticks; egg deposition after 7 days; read-out: efficacy (infertile eggs)
Description: Boophilus Microplus—Injection Test Solvent: dimethyl sulfoxide To produce a suitable preparation of active compound, 10 mg of active compound are dissolved in 0.5 ml solvent, and the concentrate is diluted with solvent to the desired concentration. Five adult engorged female ticks (Boophilus microplus) are injected with 1 μl compound solution into the abdomen. The ticks are transferred into replica plates and incubated in a climate chamber. After 7 days egg deposition of fertile eggs is monitored. Eggs where fertility is not visible are stored in a climate chamber till hatching after about 42 days. An efficacy of 100% means all eggs are infertile; 0% means all eggs are fertile.

Ctenocephalides felis = Ctenocephalides felis oral test; conditions: 48 h, 100 ppm in cattle blood, after 2 days, adult unfed cat fleas
Description: Ctenocephalides Felis—Oral Test
Solvent: dimethyl sulfoxide
To produce a suitable preparation of active compound, 10 mg of active compound are dissolved in 0.5 ml solvent, and the concentrate is diluted with cattle blood to the desired concentration.
Approximately 20 adult unfed cat fleas (Ctenocephalides felis) are placed in flea chambers. The blood chamber, sealed with parafilm on the bottom, are filled with cattle blood supplied with compound solution and placed on the gauze covered top of the flea chamber, so that the fleas are able to suck the blood. The blood chamber is heated to 37° C. whereas the flea chamber is kept at room temperature.
After 2 days mortality in % is determined. 100% means all the fleas have been killed; 0% means none of the fleas have been killed.

Diabrotica balteata = Diabrotica balteata spray test; conditions: Diabrotica balteata, in Triticum aestivum, 168 h, after 7 days, larvae on wheat seeds, read-out: efficacy (seedlings grown up); for pest or weed control at 80 µg/disc, 250 g/ha: 80 μg/well (=250 g/ha); for pest or weed control at 160 µg/disc, 500 g/ha: 160 μg/well (=500 g/ha)
Description: Diabrotica balteata—Spray Test [table] To produce a suitable preparation of active compound, 1 part by weight of active compound is mixed with the stated amount of solvent, and the concentrate is diluted with water, containing an emulsifier concentration of 1000 ppm, to the desired concentration. Further test concentrations are prepared by dilution with emulsifier containing water. Soaked wheat seeds (Triticum aestivum) are placed in a multiple well plate filled with agar and some water and are incubated for 1 day to germinate (5 seeds per well). The germinated wheat seeds are sprayed with a test solution containing the desired concentration of the active ingredient. Afterwards each unit is infected with 10-20 larvae of the banded cucumber beetle (Diabrotica balteata). After 7 days efficacy in % is determined. 100% means all the seedlings have grown up like in the untreated, uninfected control; 0% means none of the seedlings have grown.

[2] = test system: Aedes aegypti strain MONHEIM; assay: Aedes aegypti test (AEDSAE surface treatment & contact assay); conditions: 24 hours after contact, read-out: efficacy (mortality)
Description: Aedes Aegypti Test (AEDSAE Surface Treatment & Contact Assay)
Solvent: Aceton+2000 ppm rapeseed oil methyl ester (RME)
In order to produce a sufficient, active ingredient containing solution it is necessary to solve the test compound in the solvent-mix (acetone at 2 mg/ml/RME 2000 ppm). This solution is pipetted onto a glazed tile and after evaporation of the acetone, adult mosquitoes of the species Aedes aegypti strain MONHEIM are placed onto the dried surface. The exposure time is 30 minutes.
Mortality in percent (%) is determined 24 hours after contact of the insects to the treated surface. 100% mortality means that all tested insects are dead, whereas 0% means that no insect died.

Nezara viridula = Nezara viridula spray test; conditions: 96 h, after 4 days, larvae on barley plants
Description: Nezara viridula—Spray Test
as §1, with “solvent,” for “solvents”, “and the concentrate” for “and”
Barley plants (Hordeum vulgare) infested with larvae of the southern green stink bug (Nezara viridula) are sprayed with a test solution containing the desired concentration of the active ingredient.
After 4 days mortality in % is determined. 100% means all the stink bugs have been killed: 0% means none of the stink bugs have been killed.

Myzus persicae [3] = assay: Myzus persicae spray test; conditions: foliar, 120 h, after 5 days, Chinese cabbage leaf disks
Description: Myzus persicae—Spray Test
as §1
Chinese cabbage (Brassica pekinensis) leaf disks infected with all instars of the green peach aphid (Myzus persicae), are sprayed with a preparation of the active ingredient of the desired concentration.
as §2

| Compound | mortality at 500 g/ha (Spodoptera frugiperda) [%] | mortality at 4 ppm (Myzus persicae [1]) [%] | pest or weed control at 0.02 mg (Boophilus microplus) [%] | mortality at 100 ppm (Ctenocephalides felis) [%] | pest or weed control at 80 µg/disc, 250 g/ha (Diabrotica balteata) [%] | pest or weed control at 160 µg/disc, 500 g/ha (Diabrotica balteata) [%] | mortality at 4 mg/m2 ([2]; surface concentration 4 mg/m^2, exposure 30 minutes) [%] | mortality at 20 mg/m2 ([2]; surface concentration 20 mg/m^2, exposure 30 minutes) [%] | mortality at 100 g/ha (Spodoptera frugiperda) [%] | mortality at 500 g/ha (Nezara viridula) [%] | mortality at 100 g/ha (Myzus persicae [3]; 100 g/ha) [%] | mortality at 500 g/ha (Myzus persicae [3]) [%] | mortality at 100 g/ha (Nezara viridula) [%] |
| --- | --- | --- | --- | --- | --- | --- | --- | --- | --- | --- | --- | --- | --- |
| C[C@H](NC(=O)c1cncc(I)c1)c1ncnn1-c1ccc(C#N)cn1 [Example I-063] | 83 | 100 | 100 | 100 | 100 | 100 | 90 to 100 | 90 to 100 | – | – | – | – | – |
| C[C@H](NC(=O)c1cc(Cl)cc(C(F)(F)F)c1)c1ncnn1-c1ccc(NC(=O)C(F)(F)F)cn1 [Example I-072] | 100 | 90 | – | – | 100 | 100 | – | – | 83 | – | – | – | – |
| C[C@H](NC(=O)c1cc(Cl)cc(OC(F)(F)F)c1)c1ncnn1-c1ccc(N)cn1 [Example I-101] | 100 | 100 | – | – | 100 | 100 | – | – | – | 100 | – | – | – |
| Cc1cc(C(=O)N[C@@H](C)c2ncnn2-c2ccc(C#N)cn2)cc(C(F)(F)F)c1 [Example I-040] | 100 | 100 | 100 | 100 | 100 | 100 | – | – | 100 | – | – | – | – |
| C[C@H](NC(=O)c1cc(Cl)cc(C(F)(F)F)c1)c1ncnn1-c1ccc(S(=O)(=O)C(F)(F)F)cn1 [Example I-027, 3-chloro-5-(trifluoromethyl)-N-[(1S)-1-(1-{5-[(trifluoromethyl)sulfonyl]pyridin-2-yl}-1H-1,2,4-triazol-5-yl)ethyl]benzamide] | 100 | – | 100 | 100 | 100 | 100 | – | – | 100 | – | – | – | – |
| C[C@H](NC(=O)c1cc(Cl)cc(C(F)(F)F)c1)c1ncnn1-c1ccc(C(=O)N(C)C2CC2)cn1 [Example I-110, 6-(5-{(1S)-1-[3-chloro-5-(trifluoromethyl)benzamido]ethyl}-1H-1,2,4-triazol-1-yl)-N-cyclopropyl-N-methylnicotinamide] | 100 | – | – | – | – | 100 | – | – | 100 | 90 | 90 | 100 | – |
| C[C@H](NC(=O)c1cc(Cl)cc(C(F)(F)F)c1)c1ncnn1-c1ccc(S(C)(=O)=O)cn1 [Example I-062] | 100 | – | 100 | 100 | 100 | 100 | – | – | 100 | 100 | – | – | – |
| C[C@H](NC(=O)c1cc(Cl)cc(C(F)(F)F)c1)c1ncnn1-c1ccc(-n2ccc(C(F)(F)F)n2)cn1 [Example I-045, 3-chloro-5-(trifluoromethyl)-N-[(1S)-1-(1-{5-[3-(trifluoromethyl)-1H-pyrazol-1-yl]pyridin-2-yl}-1H-1,2,4-triazol-5-yl)ethyl]benzamide] | 100 | – | 100 | 95 | 100 | 80 | – | – | 100 | – | – | – | – |
| C[C@H](NC(=O)c1cc(Cl)cc(C(F)(F)F)c1)c1ncnn1-c1ccc(NC(=O)c2ccc(F)cc2)cn1 [Example I-036] | 100 | 100 | 100 | 100 | 100 | 100 | – | – | 100 | – | – | – | – |
| C[C@H](NC(=O)c1cc(Cl)cc(C(F)(F)F)c1)c1ncnn1-c1ccc(OC(F)(F)F)cn1 [Example I-016] | 100 | – | 100 | 100 | 100 | 100 | – | – | 100 | – | – | – | – |
| C[C@H](NC(=O)c1cc(Cl)cc(C(F)(F)F)c1)c1ncnn1-c1ccc(NC(=O)CC#N)cn1 [Example I-073] | – | – | 100 | 100 | 100 | 100 | – | – | – | – | – | 90 | – |
| C[C@H](NC(=O)c1cncc(Br)c1)c1ncnn1-c1ccc(C#N)cn1 [Example I-053] | 100 | – | 100 | 100 | 100 | 100 | – | – | – | – | – | – | – |
| C[C@H](NC(=O)c1cc(Cl)cc(C(F)(F)F)c1)c1ncnn1-c1ccc(C(=O)NC2(C#N)CC2)cn1 [Example I-112] | 83 | 90 | – | – | – | 100 | – | – | – | 100 | – | – | 100 |
| C[C@H](NC(=O)c1cc(C(F)(F)F)cc(C(F)(F)F)c1)c1ncnn1-c1nccs1 [Example I-103] | 100 | 100 | – | – | 100 | 100 | – | – | 100 | 100 | – | – | 100 |
| CON=Cc1ccc(-n2ncnc2[C@H](C)NC(=O)c2cc(Cl)cc(C(F)(F)F)c2)nc1 [Example I-065, 3-chloro-N-[(1S)-1-(1-{5-[(methoxyimino)methyl]pyridin-2-yl}-1H-1,2,4-triazol-5-yl)ethyl]-5-(trifluoromethyl)benzamide] | 100 | – | – | – | 100 | 100 | – | – | 100 | 90 | – | 90 | – |
| C[C@H](NC(=O)c1cc(Cl)cc(C(F)(F)F)c1)c1ncnn1-c1ccc(C(N)=O)cn1 [Example I-100] | 100 | 100 | – | 100 | 100 | 100 | – | – | 100 | 100 | – | – | – |
